This note sets out measurements from paper PMC9821843, “Powerful Potential of Polyfluoroalkyl-Containing 4-Arylhydrazinylidenepyrazol-3-ones for Pharmaceuticals” (Molecules, 2022).

The inhibition is the relative decrease from the control value, in per cent. A word on the MIC: it is the lowest concentration found to suppress growth. By IC50 is commonly meant the concentration that gives 50% inhibition.

Assay [1] concerns the target T1, equine serum butyrylcholinesterase (BChE, EC 3.1.1.8) (Equus caballus, UniProt P81908).
T1 construct: equine serum butyrylcholinesterase (BChE, EC 3.1.1.8); purchased Sigma-Aldrich (Saint Louis, MO, USA); host or cells: equine serum
The experiment in a line: Inhibition of equine serum butyrylcholinesterase (Ellman assay). It counts as biochemical. To be noted: read-out: Inhibition % at 20 µM, Equine BChE. The procedure, abridged: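 Ellman colorimetric assay with 0.02 unit/mL BChE, 1 mM butyrylthiocholine iodide and 0.33 mM DTNB, 2% (v/v) DMSO final; substrate added after enzyme-compound mixing. Residual activity versus inhibitor-free control, blanks without enzyme; triplicates, IC50 by linear regression.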

Assay [2] addresses T2, human erythrocyte acetylcholinesterase (AChE, EC 3.1.1.7) (Homo sapiens, UniProt P22303).
T2 construct: human erythrocyte acetylcholinesterase (AChE, EC 3.1.1.7); purchased Sigma-Aldrich (Saint Louis, MO, USA); host or cells: human erythrocytes
In words: Inhibition of human erythrocyte acetylcholinesterase (Ellman assay). Type of assay: biochemical. To be noted: read-out: Inhibition % at 20 µM, Human AChE. The procedure, abridged:
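Colorimetric Ellman read-out with acetylthiocholine iodide substrate and DTNB, under standard reversible-inhibitor conditions, 2% (v/v) final DMSO. Enzyme-free blanks corrected for non-enzymatic hydrolysis; triplicate runs, IC50 from regression plots.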

Assay [3] is described as follows: Oxygen radical absorbance capacity (ORAC-FL) assay. As to conditions: n.a. = inactive; i.t.s. = interferes with test system. The procedure, abridged:
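Fluorescein oxidative degradation by the peroxyl radical generator AAPH is monitored in the presence of test compound, a HAT-based read-out. Activity is expressed relative to Trolox as reference antioxidant.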

The test system of assay [4] is Trichophyton rubrum RCPF F 1408. In words: Antifungal susceptibility testing, T. rubrum. As to conditions: for MIC: Trichophyton rubrum, RCPFF1408, read-out: MIC for fungi strains inhibition, T. rubrum.
Excerpt: (§2) The solvent was DMSO. […] In each test, a growth control and a sterility control were used.
Assay [5] relates to Microsporum canis RCPF F 1643/1585. In words: Antifungal susceptibility testing, M. canis. As to conditions: for MIC: Microsporum canis, RCPFF1643/1585, read-out: MIC for fungi strains inhibition, M. canis.
Excerpt: as §2
Assay [6] concerns Candida albicans RCPF Y 401/NCTC 885/653. In words: Antifungal susceptibility testing, C. albicans. As to conditions: NCTC885, read-out: MIC for fungi strains inhibition, C. albicans.
Excerpt: as §2
For assay [7], the system named is Epidermophyton floccosum RCPF F 1659/17. The experiment in a line: Antifungal susceptibility testing, E. floccosum. To be noted: for MIC: Epidermophyton floccosum, RCPFF1659/17, read-out: MIC for fungi strains inhibition, E. floccosum.
Excerpt: as §2
The subject of the next assay is HeLa tumor cell line. The experiment in a line: Cytotoxicity against HeLa cells (MTT assay). Type of assay: cell-based, human. To be noted: for IC50: Homo sapiens, HeLa, 72 h, MTT, n.a. = inactive, read-out: IC50, HeLa; for Selectivity Index (SI): ratio of average IC50 in normal fibroblasts to average IC50 for HeLa. As to the method: (§1) Cytotoxicity of compounds was evaluated using a culture of human dermal fibroblasts, which were isolated in the Laboratory of Cell Cultures of the Institute of Medical Cell Technologies, Ekaterinburg, Russia and a HeLa tumor cell line obtained at the shared research facility «Vertebrate cell culture collection» of the Institute of Cytology of the Russian Academy of Sciences, St. Petersburg, Russia. Cells were seeded in 96-well plates in the inoculum dose of 2 × 10^5 cells/mL and cultured for 24 h in DMEM, with 1% glutamine in the presence of 10% fetal bovine serum and gentamicin (50 mg/L) at 37 °C, with humidified atmosphere of 5% CO2. Then compounds, which were dissolved in DMSO, were added to the wells at the final concentrations of 10^–7, 10^–6, 10^–5 and 10^–4 M. The cells were incubated with compounds for 72 h, after which cell viability was assessed using the standard MTT assay. The assay was carried out in four replicates with negative (culture medium), positive (solution of the cytotoxic drug camptothecin at a concentration of 3 mM) controls and the solvent control (DMSO). The results of the MTT assay were evaluated on a Tecan Infinite M200 PRO (Tecan Austria GmbH, Grödig, Austria) plate spectrophotometer by comparing the optical density of a formazan solution at 570 nm in the assay and control wells. The half maximal inhibitory concentrations (IC50) were calculated by AAT Bioquest-calculator (https://www.aatbio.com/tools/ic50-calculator (accessed on 14 November 2022)).
(Tetrazolium assays rely on reduction of a dye to a coloured formazan, in cell work by metabolically active cells.)

The test system of the next assay is human dermal fibroblasts. The experiment in a line: Cytotoxicity against human dermal fibroblasts (MTT assay). It counts as cell-based. To be noted: Fibroblast, 72 h, MTT, n.a. = inactive, read-out: IC50, Human Dermal Fibroblasts. As to the method: as §1

Converted amounts (≈) assume the structure as drawn.

T1 sequence (P81908 whole entry): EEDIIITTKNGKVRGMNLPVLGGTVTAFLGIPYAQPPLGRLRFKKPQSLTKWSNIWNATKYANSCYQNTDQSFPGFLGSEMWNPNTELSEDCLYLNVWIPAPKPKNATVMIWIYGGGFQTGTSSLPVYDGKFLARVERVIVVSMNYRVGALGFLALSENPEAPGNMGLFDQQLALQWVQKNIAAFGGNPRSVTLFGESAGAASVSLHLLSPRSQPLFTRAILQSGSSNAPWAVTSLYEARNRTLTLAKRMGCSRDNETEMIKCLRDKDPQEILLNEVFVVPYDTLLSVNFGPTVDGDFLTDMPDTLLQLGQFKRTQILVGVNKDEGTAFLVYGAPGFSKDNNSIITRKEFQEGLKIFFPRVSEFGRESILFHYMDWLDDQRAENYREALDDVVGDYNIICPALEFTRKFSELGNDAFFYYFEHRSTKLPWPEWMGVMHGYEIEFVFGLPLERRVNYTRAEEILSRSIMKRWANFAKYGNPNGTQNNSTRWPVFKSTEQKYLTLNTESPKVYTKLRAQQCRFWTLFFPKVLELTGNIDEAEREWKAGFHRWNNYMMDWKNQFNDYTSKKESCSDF
T2 sequence (P22303 32-617 isoform P22303-2 limits assumed): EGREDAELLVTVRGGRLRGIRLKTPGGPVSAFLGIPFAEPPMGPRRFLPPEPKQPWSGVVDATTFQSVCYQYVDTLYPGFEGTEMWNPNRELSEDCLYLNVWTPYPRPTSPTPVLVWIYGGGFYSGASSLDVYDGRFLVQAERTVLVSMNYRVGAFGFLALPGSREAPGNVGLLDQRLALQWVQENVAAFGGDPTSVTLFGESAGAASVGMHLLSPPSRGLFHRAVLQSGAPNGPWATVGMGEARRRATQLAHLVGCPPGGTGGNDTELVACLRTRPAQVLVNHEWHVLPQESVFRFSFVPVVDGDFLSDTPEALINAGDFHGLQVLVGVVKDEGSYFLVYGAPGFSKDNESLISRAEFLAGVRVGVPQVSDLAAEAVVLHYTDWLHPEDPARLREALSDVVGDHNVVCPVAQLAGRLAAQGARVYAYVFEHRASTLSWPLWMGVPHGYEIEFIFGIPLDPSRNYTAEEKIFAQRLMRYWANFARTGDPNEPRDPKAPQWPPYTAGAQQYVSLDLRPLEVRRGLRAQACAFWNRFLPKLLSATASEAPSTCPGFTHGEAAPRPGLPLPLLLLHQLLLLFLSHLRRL

As to `O=C1NN=C(C(F)(F)F)/C1=N/Nc1ccccc1` [5a, (Z)-4-(2-Phenylhydrazinylidene)-5-(trifluoromethyl)-2,4-dihydro-3H-pyrazol-3-one], the inhibition at 20 µM in assay [1] was found to be 10.7 ± 1.8%; in assay [2] it was 12.8 ± 2.3%. In addition, the “ORAC-FL (TE, antioxidant activity in Trolox equivalents)” value (“ORAC-FL” for short) in [3] was found to be 2.30 ± 0.20.
Consider `O=C1NN=C(C(F)(F)F)/C1=N/Nc1ccc(Br)cc1` [5c, (4Z)-4-[2-(4-Bromophenyl)hydrazinylidene]-5-(trifluoromethyl)-2,4-dihydro-3H-pyrazol-3-one], for which, in assay [4], the “MIC for fungi strains inhibition, T. rubrum” value stood at 12.5 µg/mL. Further, the MIC is 12.5 µg/mL (≈ 37.3 µM) in assay [4], 25 µg/mL (≈ 74.6 µM) in assay [5], above 200 µg/mL in [6] and 12.5 µg/mL (≈ 37.3 µM) in [7]. For the same molecule, the inhibition at 20 µM in [1] amounted to 5.9 ± 1%; in assay [2], 3.4 ± 0.6%. In [3], the “ORAC-FL” value was determined as 1.73 ± 0.21. Moreover, the “MIC for fungi strains inhibition, M. canis” value in assay [5] is 25 µg/mL. Further, the “MIC for fungi strains inhibition, E. floccosum” value in assay [7] was 12.5 µg/mL.
As to `Cc1ccc(N/N=C2\C(=O)N(c3ccccc3)N=C2C(F)(F)F)cc1` [5f, (4Z)-4-[2-(4-Methylphenyl)hydrazinylidene]-2-phenyl-5-(trifluoromethyl)-2,4-dihydro-3H-pyrazol-3-one], the MIC in [4] was above 200 µg/mL; in [5], 200 µg/mL (≈ 578 µM); in [6] it was 200 µg/mL (≈ 578 µM); in assay [7] it was 200 µg/mL (≈ 578 µM). Besides, the IC50 in the assay with HeLa tumor cell line turned out to be 4.49 ± 0.18 µM; with human dermal fibroblasts it was 20.5 ± 2.52 µM. In addition, the “Selectivity Index (SI)” value with HeLa tumor cell line turned out to be 4.56. In addition, the “ORAC-FL” value in assay [3] is “i.t.s”.
As to `CC1=NNC(=O)/C1=N\Nc1ccc(C)cc1` [9a, (4Z)-5-Methyl-4-[2-(4-methylphenyl)hydrazinylidene]-2,4-dihydro-3H-pyrazol-3-one], the inhibition at 20 µM in assay [1] worked out at 4.3 ± 1%. In the assay with HeLa tumor cell line, the IC50 stood at 3.16 ± 0.25 µM and the “Selectivity Index (SI)” value amounted to 7.68. Besides, the “ORAC-FL” value in [3] is 3.23 ± 0.50. Besides, the IC50 with human dermal fibroblasts amounted to 24.3 ± 1.82 µM.
On to `CC1=NN(c2ccccc2)C(=O)/C1=N\Nc1ccc(C)cc1` [9b, (4Z)-5-Methyl-4-[2-(4-methylphenyl)hydrazinylidene]-2-phenyl-2,4-dihydro-3H-pyrazol-3-one], for which the MIC in assay [4], in assay [5], in assay [6] and in assay [7] was above 200 µg/mL throughout. The results for the IC50 in the assay with HeLa tumor cell line and in the assay with human dermal fibroblasts were 46.5 ± 1.98 µM and 24.1 ± 3.21 µM, respectively. For the same molecule, the “Selectivity Index (SI)” value in the assay on HeLa tumor cell line is 0.52. Further, the “ORAC-FL” value in [3] was determined as 2.67 ± 0.58.
For the molecule `Cc1ccc(N/N=C2\C(=O)NN=C2C(F)(F)C(F)(F)F)cc1` [6a, (4Z)-4-[2-(4-Methylphenyl)hydrazinylidene]-5-(pentafluoroethyl)-2,4-dihydro-3H-pyrazol-3-one], in assay [1], the inhibition at 20 µM was found to be 3.3 ± 0.9%. Moreover, the results for the IC50 with HeLa tumor cell line and with human dermal fibroblasts were 1.47 ± 0.13 µM and 13 ± 2.56 µM, respectively. Besides, in the assay on HeLa tumor cell line, the “Selectivity Index (SI)” value came to 8.83. Further, in [3], the “ORAC-FL” value turned out to be 2.67 ± 0.29.
`Cc1ccc(N/N=C2\C(=O)NN=C2C(F)(F)F)cc1` [5b, (4Z)-4-[2-(4-Methylphenyl)hydrazinylidene]-5-(trifluoromethyl)-2,4-dihydro-3H-pyrazol-3-one]: the MIC in assay [4] is 50 µg/mL (≈ 185 µM); in assay [5], 100 µg/mL (≈ 370 µM); in assay [6] it was 200 µg/mL (≈ 740 µM); in [7], above 200 µg/mL. The IC50 in the assay on HeLa tumor cell line was 2.26 ± 0.14 µM; with human dermal fibroblasts it was 8.18 ± 0.73 µM. Besides, the “Selectivity Index (SI)” value with HeLa tumor cell line amounted to 3.62. For the same molecule, in [3], the “ORAC-FL” value is recorded as 2.37 ± 0.32.
In the case of `Cc1ccc(N/N=C2\C(=O)N(c3ccccc3)N=C2C(F)(F)C(F)(F)C(F)(F)F)cc1` [7b, (4Z)-5-(Heptafluoropropyl)-4-[2-(4-methylphenyl)hydrazinylidene]-2-phenyl-2,4-dihydro-3H-pyrazol-3-one], the inhibition at 20 µM amounted to 4.5 ± 1.2% in assay [1] and 12.6 ± 1.8% in [2]. The IC50 with HeLa tumor cell line worked out at 59.7 ± 6.34 µM; in the assay on human dermal fibroblasts, 73.8 ± 5.32 µM. The “Selectivity Index (SI)” value in the assay on HeLa tumor cell line was 1.24.
Regarding `Cc1ccc(N/N=C2\C(=O)N(c3ccc(S(N)(=O)=O)cc3)N=C2C(F)(F)F)cc1` [5p, (4Z)-2-[4-(Aminosulfonyl)phenyl]-4-[2-(4-methylphenyl)hydrazinylidene]-5-(trifluoromethyl)-2,4-dihydro-3H-pyrazol-3-one], the MIC in [4], in assay [5], in [6] and in assay [7] was above 200 µg/mL in each case. Besides, the inhibition at 20 µM in assay [1] was 3.6 ± 0.9%. In assay [3], the “ORAC-FL” value is “i.t.s”.
As to `CS(=O)(=O)c1ccc(N/N=C2\C(=O)N(c3ccccc3)N=C2C(F)(F)F)cc1` [5m, (4Z)-4-(2-[4-(Methylsulfonyl)phenyl]hydrazinylidene)-2-phenyl-5-(trifluoromethyl)-2,4-dihydro-3H-pyrazol-3-one], the minimum inhibitory concentration (MIC) in assay [4] is 100 µg/mL (≈ 244 µM); in assay [5], above 200 µg/mL; in assay [6], above 200 µg/mL; in [7], above 200 µg/mL. The inhibition at 20 µM in assay [1] worked out at 4 ± 1%; in assay [2] it was 5.5 ± 0.5%. For the same molecule, in assay [3], the “ORAC-FL” value is recorded as “i.t.s”.
For `Cc1ccc(N/N=C2\C(=O)NN=C2C(F)(F)C(F)(F)C(F)(F)F)cc1` [7a, (4Z)-5-(Heptafluoropropyl)-4-[2-(4-methylphenyl)hydrazinylidene]-2,4-dihydro-3H-pyrazol-3-one], the MIC in [4] is above 200 µg/mL; in [5], above 200 µg/mL; in [6], above 200 µg/mL; in assay [7], 200 µg/mL (≈ 540 µM). The inhibition at 20 µM was 10.5 ± 1.1% in assay [1] and 35.6 ± 0.8% in assay [2]. Besides, the “ORAC-FL” value in assay [3] came to 2.80 ± 0.01.
In the case of `Cc1ccc(N/N=C2\C(=O)N(C)N=C2C(F)(F)F)cc1` [5d, (4Z)-2-Methyl-4-[2-(4-methylphenyl)hydrazinylidene]-5-(trifluoromethyl)-2,4-dihydro-3H-pyrazol-3-one], the MIC in assay [4] was 200 µg/mL (≈ 704 µM); in assay [5], 200 µg/mL (≈ 704 µM); in [6], above 200 µg/mL; in assay [7], 200 µg/mL (≈ 704 µM). In assay [2], the inhibition at 20 µM came out at 4.5 ± 1.1%. Moreover, the “ORAC-FL” value in assay [3] is reported as 1.27 ± 0.15.
Consider `Cc1ccc(N/N=C2\C(=O)N(c3ccccc3)N=C2C(F)(F)C(F)(F)F)cc1` [6b, (4Z)-4-[2-(4-Methylphenyl)hydrazinylidene]-5-(pentafluoroethyl)-2-phenyl-2,4-dihydro-3H-pyrazol-3-one], for which the inhibition at 20 µM in [1] worked out at 5.7 ± 1.3%; in assay [2] it was 8.3 ± 1.4%. The IC50 in the assay with HeLa tumor cell line came to 65.9 ± 5.22 µM; in the assay on human dermal fibroblasts, 98.6 ± 6.32 µM. For the same molecule, the “Selectivity Index (SI)” value in the assay with HeLa tumor cell line is given as 1.49.
